US12728121B2, “Compositions and methods for treating idiopathic pulmonary fibrosis” (Seyltx, Inc., priority 2019, dated 2026)

Key:
Assay type in all cases: in vivo, Mouse/C57BL/6
BLM-induced fibrosis [1] = assay: Bleomycin (BLM)-induced lung fibrosis in mice: Gomori's Trichrome score of lung sections; details: for Trichrome score (average) / % reduction in fibrosis: day 21; for Trichrome score (average): BLM 2.5 U/kg intratracheal, p.o. once daily 14 days from day 7, mg/kg: Pirfenidone 300, Bromantane 20, Ifenoprodil 30, Radiprodil 30, Bemithyl 200, Dexamethasone 0.25, Repirinast 90, Normal 1.00, Vehicle 4.59; for Trichrome score response versus BLM-vehicle group (in words) / percent reduction in lung fibrosis in comparison to the BLM-vehicle group (in words): doses as Table 1, order: Dexamethasone and Repirinast, followed by Ifenprodil and Radiprodil; for % reduction in fibrosis: from Trichrome scores relative to vehicle and normal groups, doses as Table 1, p.o. once daily 14 days; for improvement in lung fibrosis, loss of body weight, Trichrome score and mortality as compared to BLM-vehicle (conclusion, in words): oral administration, Dexamethasone 0.25, Repirinast 90, Ifenprodil 30, Radiprodil 30 mg/kg
Method: (§1) The mouse species or strain was Mouse/C57BL/6, the mice being 8-10 week old males. Nine groups of 10 mice each were obtained from Charles River Laboratories. Each group was randomized based on body weight. Bleomycin (BLM) was obtained from Euroasias.
(§2) The mice were anesthetized with isoflurane/O2 mixture. Bleomycin (BLM) was then administered to the mice intratracheally (PennCentury)—single bolus, at 2.5 U/kg body weight in 50 μl sterile saline.
(§3) Seven days after the bleomycin is administered, and fibroblasts have generally proliferated, six of the nine groups of IT bleomycin challenged mice were be dosed orally (p.o.) once a day with Bromantane, Ifenoprodil, Radiprodil, Bemithyl, Dexamethasone, or Repirinast at specified amounts per kg of body weight (mg/kg) daily for 14 consecutive days. The amounts are set out in Table 1 below. The vehicle used was 0.5% carboxymethyl cellulose (CMC). Prifenidone was also prepared in 0.5% CMC and administrated orally once a day to one of the nine IT bleomycin challenged mice groups beginning for 14 consecutive days. Vehicle and no-BLM control groups received 0.5% CMC orally for 14 consecutive days.
On day 21 of the study, 4 hours after the last dose, the mice were sacrificed and plasma was collected and frozen for cytokine analysis (testing for IL-6, IL-12, TGFβ, IL-13 proteins, or fibrosis markers). Bronchoalveolar lavage fluid (BALF) was collected and frozen for optional cytokine analyses and cell counts pending the initial data. The lungs were then excised, weighed and fixed in formalin. Gomori's Trichrome stain, a histological stain, was used to determine collagen content.
Trichrome Score: A trichrome score measures the level of scarring to the lungs caused by the disease. The greater the trichrome score, the greater the scarring.
Formalin fixed lung samples were submitted to affiliated histopathology laboratory for histopathological analysis subjected Gomori's Trichrome stain, a histological stain, which was used to determine collagen content.
Each lung was divided into ten sections. All ten sections were stained and evaluated. A board certified veterinarian pathologist assessed the presence of lung fibrosis and severity score—The expression of collagen (associated with fibrosis) is determined from the ratio of the stained area versus the total area of the lung section.

BLM-induced fibrosis [2] = assay: Bleomycin (BLM)-induced lung fibrosis in mice: mortality rate over 21 days; details: doses as Table 1; for Fatality Number: deaths/mice per group over 21 days, Vehicle 2/10; for percent survival (in words): order: Dexamethasone and Repirinast, followed by Ifenprodil and Radiprodil; for Percent Fatality: over 21 days, Vehicle 20%
Method: as §1, §2, §3
Mortality Rate: the mortality rate in each group was also observed over 21 days.

[3] = Bleomycin (BLM)-induced lung fibrosis in mice: body weight over 21 days; details: for Percent Change in Body Weight / Body Weight: doses as Table 1; for Body Weight: group mean; for changes in body weight as compared to the BLM-vehicle group (in words): doses as Table 1, p.o. once daily
Method: as §1, §2, §3
Body Weight: The body weights were measured over 21 days using a laboratory balance.

Structure (SMILES) | Trichrome score (average) (BLM-induced fibrosis [1]) | Trichrome score response versus BLM-vehicle group (in words) (BLM-induced fibrosis [1]) | % reduction in fibrosis (BLM-induced fibrosis [1]) [%] | Fatality Number (BLM-induced fibrosis [2]) | Percent Fatality (BLM-induced fibrosis [2]) [%] | Percent Change in Body Weight ([3]; 7-Nov) [%] | Body Weight ([3]; 7-Nov) [g] | Percent Change in Body Weight ([3]; 8-Nov) [%] | Body Weight ([3]; 8-Nov) [g] | Percent Change in Body Weight ([3]; 9-Nov) [%] | Body Weight ([3]; 9-Nov) [g] | Percent Change in Body Weight ([3]; 12-Nov) [%] | Body Weight ([3]; 12-Nov) [g] | Percent Change in Body Weight ([3]; 14-Nov) [%] | Body Weight ([3]; 14-Nov) [g] | Percent Change in Body Weight ([3]; 16-Nov) [%] | Body Weight ([3]; 16-Nov) [g] | Percent Change in Body Weight ([3]; 20-Nov) [%] | Body Weight ([3]; 20-Nov) [g] | Percent Change in Body Weight ([3]; 22-Nov) [%] | other results
C[C@@H]1C[C@H]2[C@@H]3CCC4=CC(=O)C=C[C@]4(C)[C@@]3(F)[C@@H](O)C[C@]2(C)[C@@]1(O)C(=O)CO [Dexamethasone] | 2.45 | response was better | 59.6 | 2/10 | 20 | 0.0 | 24.3 | −0.2 | 24.1 | −0.6 | 23.7 | −1.9 | 22.4 | −1.6 | 22.7 | −0.9 | 23.4 | −1.5 | 22.7 | −0.1 | percent reduction in lung fibrosis in comparison to the BLM-vehicle group (in words) (BLM-induced fibrosis [1]): higher; improvement in lung fibrosis, loss of body weight, Trichrome score and mortality as compared to BLM-vehicle (conclusion, in words) (BLM-induced fibrosis [1]): showed improvement; percent survival (in words) (BLM-induced fibrosis [2]): higher; Body Weight ([3]; 22-Nov): 24.2 g; Percent Change in Body Weight ([3]; 26-Nov): 0.3%; Body Weight ([3]; 26-Nov): 24.5 g; Percent Change in Body Weight ([3]; 28-Nov): 0.7%; Body Weight ([3]; 28-Nov): 25.0 g; changes in body weight as compared to the BLM-vehicle group (in words) [3]: showed improvement beginning on Day 5
Cc1ccc(=O)n(-c2ccccc2)c1 [Pirfenidone (+), 5-methyl-1-phenylpyridin-2(1H)-one] | 4.09 | minimal improvement | 13.9 | 2/10 | 20 | 0.0 | 24.0 | 0.3 | 24.2 | −0.5 | 23.5 | −2.2 | 21.7 | −2.9 | 21.0 | −3.2 | 20.8 | −3.7 | 20.3 | −2.9 | Body Weight ([3]; 22-Nov): 21.1 g; Percent Change in Body Weight ([3]; 26-Nov): −3.1%; Body Weight ([3]; 26-Nov): 20.9 g; Percent Change in Body Weight ([3]; 28-Nov): −3.2%; Body Weight ([3]; 28-Nov): 20.7 g
O=C(Nc1ccc2[nH]c(=O)oc2c1)C(=O)N1CCC(Cc2ccc(F)cc2)CC1 [Radiprodil, 2-[4-[(4-fluorophenyl)methyl]piperidin-1-yl]-2-oxo-N-(2-oxo-3H-1,3-benzoxazol-6-yl)acetamide] | 3.45 | response was better | 31.8 | 2/10 | 20 | 0.0 | 23.6 | 0.0 | 23.6 | −0.4 | 23.2 | −2.3 | 21.3 | −1.8 | 21.8 | −1.0 | 22.6 | −1.2 | 22.4 | −0.3 | percent reduction in lung fibrosis in comparison to the BLM-vehicle group (in words) (BLM-induced fibrosis [1]): higher; improvement in lung fibrosis, loss of body weight, Trichrome score and mortality as compared to BLM-vehicle (conclusion, in words) (BLM-induced fibrosis [1]): showed improvement; percent survival (in words) (BLM-induced fibrosis [2]): higher; Body Weight ([3]; 22-Nov): 23.3 g; Percent Change in Body Weight ([3]; 26-Nov): 0.3%; Body Weight ([3]; 26-Nov): 24.0 g; Percent Change in Body Weight ([3]; 28-Nov): 0.4%; Body Weight ([3]; 28-Nov): 24.0 g; changes in body weight as compared to the BLM-vehicle group (in words) [3]: showed improvement beginning on Day 5
